The text below walks through data of patent publication US9980943B2, “Methods of treating muscular dystrophy” (BOARD OF REGENTS OF THE NEVADA SYSTEM OF HIGHER EDUCATION, …, priority 2013, dated 2018).

Structures are written as SMILES.

What all share (format): cell-based, mouse
The subject of assay [1] is β-galactosidase in CMV-LacZ C2C12 myoblasts. Nature of the assay: CMV-LacZ secondary screen in C2C12 myoblasts (β-Gal stabilizing assay). As to conditions: CMV-LacZ C2C12 myoblasts. Summed up:
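A secondary screen identifies compounds that stabilize β-gal independently of the native promoter, using CMV-LacZ C2C12 cells. Curves span 0.5–40 μM at six levels, in duplicate.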

Assay [2] relates to α7 integrin (LacZ reporter in α7+/LacZ myotubes). Nature of the assay: Myotube α7 integrin FDG assay (Burkin assay in myotubes, 96-well). As to conditions: myotubes.
Assay [3] concerns β-galactosidase in CMV-LacZ C2C12 myotubes. Nature of the assay: CMV-LacZ secondary screen in C2C12 myotubes (β-Gal stabilizing assay). As to conditions: C2C12 CMV-LacZ myotubes, fold relative to DMSO. The essentials:
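Dose-response runs at 0.5–40 μM (0.5, 1, 5, 10, 20, 40 μM; N=2 per point) used a clonal C2C12 line carrying CMV-LacZ. Cells were assayed as myoblasts or as differentiated myotubes, and β-galactosidase levels were read with the FDG fluorogenic substrate.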

Assay [4] deals with α7 integrin (LacZ reporter in α7βgal+/− myoblasts). Nature of the assay: Myoblast α7+/LacZ integrin FDG assay (Burkin assay in myoblasts, 96-well). As to conditions: α7+/LacZ myoblasts, 96-well.

For the molecule `CCOC(=O)c1nnn(-c2nonc2OC)c1-c1ccccc1` [MLS000045588-01], the “CMV-LACZ in Myoblasts (β-galactosidase activity relative to DMSO)” value in assay [1] (0.5 uM) is 0.7647; in assay [1] (1 uM) it was 0.8372; in assay [1] (5 uM), 1.0245; in assay [1] (10 uM), 1.0611; in assay [1] (20 uM), 0.8056; in assay [1] (40 uM) it was 1.2167. Besides, the “Burkin Assay in Myotubes, α7 integrin LacZ reporter signal relative to DMSO” value in assay [2] (0.5 uM) was 1.077; in assay [2] (1 uM), 1.099; in assay [2] (5 uM), 1.135; in assay [2] (10 uM) it was 1.036; in assay [2] (20 uM), 1.063; in assay [2] (40 uM) it was 0.9546. The “CMV-LACZ in Myotubes, signal relative to DMSO” value in assay [3] (0.5 uM) turned out to be 0.9059; in assay [3] (1 uM) it was 0.8607; in assay [3] (5 uM) it was 1.2294; in assay [3] (10 uM), 0.9776; in assay [3] (20 uM), 1.0494; in assay [3] (40 uM) it was 0.9424. The “Burkin Assay in Myoblasts, signal relative to DMSO” value in assay [4] (0.5 uM) was found to be 1.016; in assay [4] (1 uM), 1.107; in assay [4] (5 uM) it was 1.075; in assay [4] (10 uM), 0.917; in assay [4] (20 uM), 1.003; in assay [4] (40 uM), 0.8919.
For the molecule `Nc1cccc(/C=C/C(=O)O)c1` [MLS000777780-01], the “CMV-LACZ in Myoblasts (β-galactosidase activity relative to DMSO)” value in assay [1] (0.5 uM) was determined as 0.8779; in assay [1] (1 uM), 0.9063; in assay [1] (5 uM), 0.9893; in assay [1] (10 uM) it was 1.0126; in assay [1] (20 uM), 1.3393; in assay [1] (40 uM) it was 0.9463. The “Burkin Assay in Myotubes, α7 integrin LacZ reporter signal relative to DMSO” value is 1.047 in assay [2] (0.5 uM); 0.9837 in assay [2] (1 uM); 0.8697 in assay [2] (5 uM); 0.9393 in assay [2] (10 uM); 0.8814 in assay [2] (20 uM); 0.7756 in assay [2] (40 uM). Further, the “CMV-LACZ in Myotubes, signal relative to DMSO” value in assay [3] (0.5 uM) is listed as 0.8914; in assay [3] (1 uM), 0.8838; in assay [3] (5 uM), 1.0471; in assay [3] (10 uM), 0.8808; in assay [3] (20 uM) it was 0.9316; in assay [3] (40 uM) it was 1.0474. Besides, the “Burkin Assay in Myoblasts, signal relative to DMSO” value in assay [4] (0.5 uM) was found to be 1.136; in assay [4] (1 uM), 1.056; in assay [4] (5 uM), 0.9439; in assay [4] (10 uM), 1.248; in assay [4] (20 uM), 0.9133; in assay [4] (40 uM) it was 0.7231.
As to `CCCc1nnc(SCC(=O)NC2CCCC2)n1CCOC` [MLS001217935-01], the “CMV-LACZ in Myoblasts (β-galactosidase activity relative to DMSO)” value in assay [1] (0.5 uM) is given as 1.1729; in assay [1] (1 uM) it was 1.1167; in assay [1] (5 uM), 1.0175; in assay [1] (10 uM) it was 1.0465; in assay [1] (20 uM), 0.7859; in assay [1] (40 uM) it was 0.5381. The “Burkin Assay in Myotubes, α7 integrin LacZ reporter signal relative to DMSO” value in assay [2] (0.5 uM) came out at 0.9075; in assay [2] (1 uM) it was 1.018; in assay [2] (5 uM), 0.8812; in assay [2] (10 uM), 1.081; in assay [2] (20 uM), 0.7887; in assay [2] (40 uM), 0.5246. The “CMV-LACZ in Myotubes, signal relative to DMSO” value turned out to be 0.9705 in assay [3] (0.5 uM); 1.1381 in assay [3] (1 uM); 1.1473 in assay [3] (5 uM); 0.9648 in assay [3] (10 uM); 1.0547 in assay [3] (20 uM); 0.9495 in assay [3] (40 uM). The “Burkin Assay in Myoblasts, signal relative to DMSO” value is listed as 1.162 in assay [4] (0.5 uM); 1.076 in assay [4] (1 uM); 0.9106 in assay [4] (5 uM); 0.893 in assay [4] (10 uM); 0.8002 in assay [4] (20 uM); 0.587 in assay [4] (40 uM).
As to `CCCn1c(-c2cc(OC)c(OC)c(OC)c2)nc2c1c(=O)[nH]c(=O)n2Cc1ccccc1` [MLS001174740-01], the “CMV-LACZ in Myoblasts (β-galactosidase activity relative to DMSO)” value in assay [1] (0.5 uM) was found to be 1.2750; in assay [1] (1 uM) it was 0.9721; in assay [1] (5 uM) it was 1.0046; in assay [1] (10 uM), 0.9490; in assay [1] (20 uM), 0.4293; in assay [1] (40 uM) it was 0.4578. Also, the “Burkin Assay in Myotubes, α7 integrin LacZ reporter signal relative to DMSO” value in assay [2] (0.5 uM) is given as 0.9078; in assay [2] (1 uM), 0.8687; in assay [2] (5 uM), 0.8574; in assay [2] (10 uM) it was 0.9017; in assay [2] (20 uM) it was 0.7823; in assay [2] (40 uM) it was 0.7064. Also, the “CMV-LACZ in Myotubes, signal relative to DMSO” value amounted to 0.8533 in assay [3] (0.5 uM); 0.9267 in assay [3] (1 uM); 0.9101 in assay [3] (5 uM); 1.0520 in assay [3] (10 uM); 1.0568 in assay [3] (20 uM); 0.8863 in assay [3] (40 uM). Besides, the “Burkin Assay in Myoblasts, signal relative to DMSO” value in assay [4] (0.5 uM) is 1.221; in assay [4] (1 uM), 1.193; in assay [4] (5 uM) it was 0.8512; in assay [4] (10 uM), 1.181; in assay [4] (20 uM), 0.9658; in assay [4] (40 uM) it was 0.5414.
Turning to `O=C(CSc1nnc2c(n1)[nH]c1ccccc12)NCc1ccccc1F` [MLS001225512-01], the “CMV-LACZ in Myoblasts (β-galactosidase activity relative to DMSO)” value stood at 0.9597 in assay [1] (0.5 uM); 1.0843 in assay [1] (1 uM); 1.1655 in assay [1] (5 uM); 1.4266 in assay [1] (10 uM); 0.8237 in assay [1] (20 uM); 1.0111 in assay [1] (40 uM). In addition, the “Burkin Assay in Myotubes, α7 integrin LacZ reporter signal relative to DMSO” value turned out to be 0.929 in assay [2] (0.5 uM); 1.059 in assay [2] (1 uM); 0.9799 in assay [2] (5 uM); 0.8235 in assay [2] (10 uM); 0.8431 in assay [2] (20 uM); 0.7401 in assay [2] (40 uM). In addition, the “CMV-LACZ in Myotubes, signal relative to DMSO” value in assay [3] (0.5 uM) worked out at 1.0162; in assay [3] (1 uM), 1.0381; in assay [3] (5 uM), 0.9459; in assay [3] (10 uM), 1.0077; in assay [3] (20 uM), 1.2482; in assay [3] (40 uM) it was 0.8871. Further, the “Burkin Assay in Myoblasts, signal relative to DMSO” value amounted to 1.1596 in assay [4] (0.5 uM); 0.9131 in assay [4] (1 uM); 1.173 in assay [4] (5 uM); 0.8832 in assay [4] (10 uM); 1.108 in assay [4] (20 uM); 1.284 in assay [4] (40 uM).
